Reference: US11666619B2, “Composition for treating atopic dermatitis including herbal medicine mixed extract” (University—Industry Cooperation Group of Kyung Hee …, priority 2016, dated 2023)

Assays:
BALB/c mouse = assay: DNCB-induced AD-like skin lesions in BALB/c mouse: clinical signs, skin thickness, spleen weight, body weight; format: in vivo; details: DNCB-treated BALB/c mice
Source text: To examine effects of KAJD on atopic dermatitis (AD), DNCB (2,4-dinitrochlorobenzene) was applied to the skin of a BALB/c mouse to induce AD-like symptoms. In many studies regarding atopic dermatitis, models in which atopy-like dermatitis was induced using chemical antigens such as DNCB, 2,4-dinitrofluorobenzene, 2,4,6-trinitrothlorobenzene, etc. are used ([…]. et al, Immunology, 1995, 86, 545-550). In detail, 6-week-old BALB/c mice (20±2 g) were used, which were purchased from Orient Inc. (Seongnam, Korea). Mice were randomly divided into control groups or experimental groups (no treatment, DNCB, DNCB+tacrolimus, DNCB+KAJD), each group including five mice. All mice were raised under a pathogen-free environment with free access to sterile distilled water and solid feed. All mouse experiments were approved by the Experimental Animal Ethics Committee of Kyung Hee University (Approval Number: KHUASP (SE)-14-014). To induce AD-like skin lesions, the dorsal skin of the mouse was shaved, and 100 μL of 2% DNCB was applied thereto using a patch of 1 cm×1 cm twice a week. KAJD or tacrolimus, which is an existing therapeutic agent for AD, was periodically applied to the DNCB-applied skin for 2 weeks. At 28 days, all mice were sacrificed by CO2 inhalation. To examine changes in the skin of the BALB/c mouse by KAJD, clinical signs were observed once a week for 4 weeks. Severities of AD-like lesions in the dorsal skin, which are indicated by erythema/bleeding, edema, exfoliation/dryness, and excoriation/erosion, were scored according to a scale of 0 to 3 (0: absent, 1: mild, 2: moderate, 3: severe). Individual scores were added, and clinical skin scores were defined according to a scale of 0 to 12.

white blood cells (WBCs) = assay: Number of white blood cells in blood of DNCB-treated mice (hematology analyzer); format: in vivo, mouse; details: FIG. 5
Protocol: High levels of white blood cells (WBCs) are observed in most atopic dermatitis patients. Therefore, to examine therapeutic effects of KAJD on atopic dermatitis, the number of WBCs in the blood of mice was analyzed after treatment with KAJD. In detail, whole blood samples were collected from the heart of a mouse, and stored in a Vacutainer™ tube containing EDTA (BD Science, NJ, USA). The number of WBCs, lymphocytes, monocytes, eosinophils, basophils, or neutrophils was analyzed using a HEMAVET 950 hematology analyzer (Drew Scientific, Inc., Oxford, USA).

[1] = system: serum IgE and inflammatory cytokines; assay: Serum IgE and inflammatory cytokines in DNCB-treated mice (sandwich ELISA); format: in vivo, mouse; details: FIG. 6
Protocol: One of the features of AD is high expression levels of blood IgE and inflammatory cytokines. Therefore, to analyze a mechanism of anti-inflammatory activity of KAJD, levels of blood IgE and inflammatory cytokines in DNCB-treated mice were analyzed. In detail, expression levels were analyzed by sandwich ELISA using a BD PharMingen mouse or human ELISA set (Pharmingen, San Diego, Calif., USA). A plate was coated with a capture antibody contained in an ELISA coating buffer (Sigma, St. Louis, Mo., USA), and stored at 4° C. for one day. The plate was washed with 0.05% PBS-Tween 20, and subsequently, blocked with 10% FBS-containing PBS at 20° C. for 1 hour. A standard antigen or sample serially diluted with a dilution buffer (10% FBS-containing PBS) was put in the plate, followed by incubation at 20° C. for 1 hour. Thereafter, biotin-conjugated anti-mouse IgE and SAv-HRP (streptavidin-horseradish peroxidase conjugate) was added to the plate, followed by incubation at 20° C. for 1 hour. Lastly, a TMB (tetramethylbenzidine) substrate solution was added to the plate, and incubated under dark conditions for 15 minutes, and then the reaction was terminated with a 2 N H2SO4 solution. Optical density was measured using an ELISA reader (Versa Max, Molecular Devices, CA, USA) at 450 nm.

Structure (SMILES): C=CC[C@@H]1/C=C(\C)C[C@H](C)C[C@H](OC)[C@H]2O[C@@](O)(C(=O)C(=O)N3CCCC[C@H]3C(=O)O[C@H](/C(C)=C/[C@@H]3CC[C@@H](O)[C@H](OC)C3)[C@H](C)[C@@H](O)CC1=O)[C@H](C)C[C@@H]2OC [tacrolimus]
- scleroderma (thickness of the dorsal skin) (BALB/c mouse; FIG. 2C): remarkably decrease
- spleen weight (BALB/c mouse; FIG. 2D): remarkably decrease
- severe symptoms of the skin (erythema/bleeding, edema, exfoliation/dryness, excoriation/erosion) (BALB/c mouse; topical application, FIG. 2A): remarkably reduce severe symptoms of the skin
- clinical score (severity score of AD-induced skin lesions) (BALB/c mouse; scale of 0 to 12, applied to DNCB-applied skin for 2 weeks, FIG. 2B): 3.29±0.76
- number of WBC subtypes including lymphocytes, monocytes, eosinophils, basophils, and neutrophils (white blood cells (WBCs)): decrease the number of WBC subtypes
- number of white blood cells (white blood cells (WBCs)): considerably decrease
- serum IgE [1]: considerably inhibit
- serum inflammatory cytokines (IL-6, IL-10, IL-12) [1]: considerably inhibit
